Source: ChEMBL document CHEMBL1201862, “PubChem BioAssay data set” (2004)
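Following 48 hours of exposure in 96-well plates, responses at five concentrations were used to interpolate endpoints linearly. GI50 marks 50% less growth.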 Calls of active or inactive are those of the source. No stated cut-off is given here; in the data, active = GI50 up to about 1.1 µM and inactive = higher.

Experiments:
Test in all cases: growth of human tumour cells (NCI), 48 h
A549 = tested on: A549
CCRF-CEM = tested on: CCRF-CEM
EKVX = tested on: EKVX
HL-60 = tested on: HL-60
HOP-92 = tested on: HOP-92
LOX IMVI = tested on: LOX IMVI
MDA-N = tested on: MDA-N
Malme-3M = tested on: Malme-3M
NCI-H522 = tested on: NCI-H522
OVCAR-3 = tested on: OVCAR-3
OVCAR-8 = tested on: OVCAR-8
SF-268 = tested on: SF-268
SF-539 = tested on: SF-539
SK-MEL-2 = tested on: SK-MEL-2
SN12C = tested on: SN12C
TK-10 = tested on: TK-10
UACC-257 = tested on: UACC-257
A498 = tested on: A498
HCC 2998 = tested on: HCC 2998

Measured: GI50

O=S(=O)(N/C(=N\O)Nc1ccc(Cl)cc1)c1cc(C(F)(F)F)cc(C(F)(F)F)c1
inactive: A549 18.1 µM | CCRF-CEM 40.7 µM | EKVX 16.6 µM | HL-60 24.3 µM | HOP-92 16.2 µM | LOX IMVI 18.5 µM | MDA-N 21 µM | Malme-3M 18 µM | NCI-H522 18.9 µM | OVCAR-3 16 µM | OVCAR-8 18.7 µM | SF-268 21.6 µM | SF-539 22.3 µM | SK-MEL-2 17.4 µM | SN12C 17.5 µM | TK-10 19.2 µM | UACC-257 20.9 µM

COC(=O)c1sc(=S)sc1SCc1ccccc1CSc1sc(=S)sc1C(=O)OC
inactive: A498 > 100 µM | A549 > 100 µM | CCRF-CEM 27.5 µM | EKVX > 100 µM | HCC 2998 > 100 µM | HOP-92 > 100 µM | LOX IMVI > 100 µM | MDA-N > 100 µM | Malme-3M > 100 µM | NCI-H522 > 100 µM | OVCAR-3 > 100 µM | OVCAR-8 > 100 µM | SF-268 > 100 µM | SK-MEL-2 > 100 µM | SN12C > 100 µM | TK-10 > 100 µM | UACC-257 > 100 µM

COC(=O)/C=C1\C(CO[Si](C)(C)C(C)(C)C)OC(n2cc(C)c(=O)n(C)c2=O)C1O[Si](C)(C)C(C)(C)C (stereo unspecified)
inactive: A498 > 100 µM | A549 > 100 µM | CCRF-CEM > 100 µM | EKVX > 100 µM | HOP-92 > 100 µM | LOX IMVI 89.5 µM | MDA-N > 100 µM | Malme-3M > 100 µM | NCI-H522 78 µM | OVCAR-3 > 100 µM | OVCAR-8 > 100 µM | SF-268 > 100 µM | SK-MEL-2 > 100 µM | SN12C > 100 µM | TK-10 > 100 µM

COc1ccc(-c2c(C#N)c(O)n(NS(=O)(=O)c3ccc(C)cc3)c(=O)c2C#N)cc1
inactive: A498 57.1 µM | A549 91.8 µM | CCRF-CEM 33.4 µM | EKVX 70.8 µM | HCC 2998 45.9 µM | HL-60 37.1 µM | HOP-92 4.71 µM | LOX IMVI 45.4 µM | MDA-N 77.8 µM | Malme-3M 70.6 µM | NCI-H522 13.8 µM | OVCAR-8 70 µM | SF-268 > 100 µM | SF-539 67.8 µM | SK-MEL-2 > 100 µM | SN12C > 100 µM | TK-10 79.3 µM | UACC-257 > 100 µM

CC1(C)CC(=O)C2=C(C1)NC(SCC(=O)O)=C(C#N)C2c1ccc(Br)cc1 (stereo unspecified)
inactive: A498 > 100 µM | A549 > 100 µM | CCRF-CEM > 100 µM | EKVX > 100 µM | HCC 2998 > 100 µM | HL-60 > 100 µM | HOP-92 27.4 µM | LOX IMVI > 100 µM | MDA-N > 100 µM | NCI-H522 86.5 µM | OVCAR-3 > 100 µM | OVCAR-8 > 100 µM | SF-268 > 100 µM | SK-MEL-2 > 100 µM | TK-10 > 100 µM | UACC-257 > 100 µM

O=C1CCC2c3ccccc3NCN12 (stereo unspecified)
inactive: A498 > 100 µM | A549 > 100 µM | CCRF-CEM > 100 µM | EKVX > 100 µM | HCC 2998 > 100 µM | HL-60 > 100 µM | HOP-92 > 100 µM | LOX IMVI > 100 µM | MDA-N > 100 µM | Malme-3M > 100 µM | NCI-H522 > 100 µM | OVCAR-3 > 100 µM | OVCAR-8 > 100 µM | SF-268 > 100 µM | SF-539 > 100 µM | SK-MEL-2 > 100 µM | SN12C > 100 µM | TK-10 > 100 µM | UACC-257 > 100 µM

O=C(c1cc(Br)ccc1O)c1cc(Br)ccc1O
inactive: A498 17.6 µM | A549 17.5 µM | CCRF-CEM 22.5 µM | EKVX 15.6 µM | HCC 2998 19.1 µM | HL-60 22.4 µM | HOP-92 13.6 µM | LOX IMVI 18.2 µM | MDA-N 14.3 µM | Malme-3M 17.3 µM | NCI-H522 15 µM | OVCAR-3 15.7 µM | OVCAR-8 16.9 µM | SF-268 19.5 µM | SF-539 21.2 µM | SK-MEL-2 15.7 µM | SN12C 16.7 µM | TK-10 18.9 µM | UACC-257 15.7 µM

CC(C)SC(NC(=O)C1C(C)(C)CCC1(C)C)C(=O)O (stereo unspecified)
inactive: A498 > 100 µM | A549 > 100 µM | CCRF-CEM > 100 µM | EKVX > 100 µM | HCC 2998 > 100 µM | HL-60 > 100 µM | HOP-92 > 100 µM | LOX IMVI > 100 µM | MDA-N > 100 µM | OVCAR-8 > 100 µM | SF-268 > 100 µM | SF-539 > 100 µM | SK-MEL-2 > 100 µM | SN12C > 100 µM | TK-10 > 100 µM

Cc1cc2oc(=O)c(Cl)c(Cl)c2c(C)c1Cl
inactive: A498 19.9 µM | A549 15.7 µM | CCRF-CEM 2.83 µM | EKVX 14.8 µM | HCC 2998 5.51 µM | HL-60 1.91 µM | HOP-92 1.58 µM | LOX IMVI 2.76 µM | MDA-N 2.92 µM | Malme-3M 10.8 µM | NCI-H522 14.3 µM | OVCAR-3 2.58 µM | OVCAR-8 3.28 µM | SF-268 3.22 µM | SF-539 9.35 µM | SK-MEL-2 4.44 µM | SN12C 11.5 µM | TK-10 14.8 µM | UACC-257 15.1 µM

O=C(NCCCCN(CCCNC(=O)C(F)(F)F)Cc1ccc2ccccc2c1)C(F)(F)F
inactive: A498 20.3 µM | A549 30.4 µM | CCRF-CEM > 10 µM | EKVX 16.4 µM | HCC 2998 13.9 µM | HL-60 65.2 µM | HOP-92 16.7 µM | LOX IMVI 14.1 µM | MDA-N 17.4 µM | Malme-3M 15.3 µM | NCI-H522 18.2 µM | OVCAR-8 16.9 µM | SF-268 16 µM | SF-539 16.3 µM | SN12C 16.1 µM | TK-10 20.4 µM | UACC-257 17.5 µM

CN(C)c1ccc(/C=C(\NC(=O)c2ccccc2)C(=O)Nc2cccc(C(=O)NCCCO)c2)cc1
inactive: A498 > 100 µM | A549 > 100 µM | CCRF-CEM > 100 µM | EKVX > 100 µM | HCC 2998 > 100 µM | HL-60 > 100 µM | HOP-92 > 100 µM | LOX IMVI > 100 µM | MDA-N > 100 µM | Malme-3M > 100 µM | NCI-H522 > 100 µM | OVCAR-3 > 100 µM | OVCAR-8 > 100 µM | SF-268 > 100 µM | SF-539 > 100 µM | SK-MEL-2 > 100 µM | SN12C > 100 µM | TK-10 > 100 µM | UACC-257 > 100 µM
